Broadly, the EC50 is the concentration that produces a half-maximal response.

From patent US8614327B2 (Vertex Pharmaceuticals Incorporated, priority 2004, dated 2013) come the findings set out here.

The test addresses T1, ΔF508-CFTR (Homo sapiens, UniProt P13569, DEL508-508).
T1 construct: expressed in transfected cells
The test is described as follows: Membrane potential optical (FRET/VIPR) assay, identification of potentiator compounds. In kind it is cell-based. The note with it: Table 3, assay not given; for % Activity: relative efficacy. In outline: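 Double-addition potentiator screen: compound delivered in gluconate-substituted Cl^--free medium, membrane potential followed via CC2-DMPE/DiSBAC2(3) FRET on VIPR. Cells were ΔF508-CFTR-expressing NIH3T3 mouse fibroblasts, held 2 h at 37° C. then 24 h at 27° C. before assay.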

T1 sequence (P13569 with tags, fused parts or gaps DEL508-508): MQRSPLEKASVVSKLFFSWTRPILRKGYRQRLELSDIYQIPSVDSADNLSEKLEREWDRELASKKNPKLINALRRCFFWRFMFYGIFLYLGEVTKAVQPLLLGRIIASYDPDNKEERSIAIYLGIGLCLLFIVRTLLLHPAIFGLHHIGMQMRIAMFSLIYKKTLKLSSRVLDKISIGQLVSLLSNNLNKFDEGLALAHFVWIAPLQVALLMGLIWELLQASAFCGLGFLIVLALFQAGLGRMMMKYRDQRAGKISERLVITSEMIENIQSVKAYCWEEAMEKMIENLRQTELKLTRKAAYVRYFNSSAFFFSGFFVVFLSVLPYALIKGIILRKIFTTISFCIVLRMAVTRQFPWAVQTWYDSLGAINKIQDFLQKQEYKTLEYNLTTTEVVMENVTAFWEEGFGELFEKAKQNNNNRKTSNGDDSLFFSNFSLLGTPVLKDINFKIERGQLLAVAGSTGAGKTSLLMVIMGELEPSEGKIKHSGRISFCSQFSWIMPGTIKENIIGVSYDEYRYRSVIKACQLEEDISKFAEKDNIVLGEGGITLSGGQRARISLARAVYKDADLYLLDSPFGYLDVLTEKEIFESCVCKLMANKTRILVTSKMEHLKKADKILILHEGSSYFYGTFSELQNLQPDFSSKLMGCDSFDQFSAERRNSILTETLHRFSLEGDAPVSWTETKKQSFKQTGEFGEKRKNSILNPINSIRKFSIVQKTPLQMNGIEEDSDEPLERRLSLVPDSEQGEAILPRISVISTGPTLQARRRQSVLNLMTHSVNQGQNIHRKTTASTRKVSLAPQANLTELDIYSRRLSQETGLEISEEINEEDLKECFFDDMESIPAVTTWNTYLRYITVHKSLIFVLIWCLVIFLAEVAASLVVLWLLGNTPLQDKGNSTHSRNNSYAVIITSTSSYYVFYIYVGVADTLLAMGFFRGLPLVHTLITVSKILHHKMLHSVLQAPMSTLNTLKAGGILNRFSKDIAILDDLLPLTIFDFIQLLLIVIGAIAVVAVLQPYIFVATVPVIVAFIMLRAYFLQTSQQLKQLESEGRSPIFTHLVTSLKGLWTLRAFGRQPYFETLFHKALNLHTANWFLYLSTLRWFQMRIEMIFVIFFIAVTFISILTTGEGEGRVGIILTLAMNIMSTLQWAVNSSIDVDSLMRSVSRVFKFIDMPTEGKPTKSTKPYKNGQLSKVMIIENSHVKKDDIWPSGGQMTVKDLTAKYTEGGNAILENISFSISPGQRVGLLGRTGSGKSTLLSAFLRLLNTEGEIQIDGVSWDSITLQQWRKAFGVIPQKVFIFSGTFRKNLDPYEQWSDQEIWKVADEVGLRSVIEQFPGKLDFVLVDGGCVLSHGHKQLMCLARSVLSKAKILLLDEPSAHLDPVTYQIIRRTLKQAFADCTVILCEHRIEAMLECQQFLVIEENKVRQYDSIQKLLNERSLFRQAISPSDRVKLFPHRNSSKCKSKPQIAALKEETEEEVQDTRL

As to `O=C(Nc1ccc(N2CCCC2)cc1C(F)(F)F)c1c[nH]c2ccccc2c1=O` [Compound 658, 4-oxo-N-[4-pyrrolidin-1-yl-2-(trifluoromethyl)phenyl]-1H-quinoline-3-carboxamide], the EC50 was < 10 µM and the “% Activity” value was “++ (between 25% to 100%)”. With `CCc1cc(C(C)(C)C)c(O)cc1NC(=O)c1c[nH]c2ccccc2c1=O` [Compound 659, N-(2-ethyl-5-hydroxy-4-tert-butyl-phenyl)-4-oxo-1H-quinoline-3-carboxamide], the EC50 is < 10 µM and the “% Activity” value was “++ (between 25% to 100%)”.

In the case of `CCOC(=O)[C@H]1CCCN(c2ccc(NC(=O)c3c[nH]c4ccccc4c3=O)c(C(F)(F)F)c2)C1` [Compound 660, (S)-ethyl 1-(4-(4-oxo-1,4-dihydroquinoline-3-carboxamido)-3-(trifluoromethyl)phenyl)piperidine-3-carboxylate], the EC50 is < 10 µM and the “% Activity” value is on record as “++ (between 25% to 100%)”.

As to `Cc1cccc2[nH]cc(C(=O)Nc3cc4[nH]ccc4cc3C(F)(F)F)c(=O)c12` [Compound 661, 5-methyl-4-oxo-N-[5-(trifluoromethyl)-1H-indol-6-yl]-1H-quinoline-3-carboxamide], the EC50 was < 10 µM and the “% Activity” value is “++ (between 25% to 100%)”. Take `CC(C)(C)c1ccc(O)cc1NC(=O)c1c[nH]c2ccccc2c1=O` [Compound 662, N-(5-hydroxy-2-tert-butyl-phenyl)-4-oxo-1H-quinoline-3-carboxamide]: the EC50 was < 10 µM and the “% Activity” value is on record as “+++ (>100%)”. As for `CC(C)(C)c1cc(C(C)(C)C)c(NC(=O)c2c[nH]c3c(Cl)cccc3c2=O)cc1O` [Compound 663, 8-chloro-N-(5-hydroxy-2,4-ditert-butyl-phenyl)-4-oxo-1H-quinoline-3-carboxamide], the EC50 was < 10 µM and the “% Activity” value is “++ (between 25% to 100%)”.

Take `CC(C)(C)c1cccc(NC(=O)c2c[nH]c3ccc(F)cc3c2=O)c1` [Compound 664, 6-fluoro-4-oxo-N-(3-tert-butylphenyl)-1H-quinoline-3-carboxamide]: the EC50 is < 10 µM and the “% Activity” value is “++ (between 25% to 100%)”. For `CC(C)(C)c1ccc(O)cc1NC(=O)c1c[nH]c2ccc(F)cc2c1=O` [Compound 665, 6-fluoro-N-(5-hydroxy-2-tert-butyl-phenyl)-4-oxo-1H-quinoline-3-carboxamide], the EC50 is < 10 µM and the “% Activity” value is on record as “++ (between 25% to 100%)”. Take `COc1cc(NC(=O)c2c[nH]c3ccc(F)cc3c2=O)cc(C(F)(F)F)c1` [Compound 666, 6-fluoro-N-[3-methoxy-5-(trifluoromethyl)phenyl]-4-oxo-1H-quinoline-3-carboxamide]: the EC50 was < 10 µM and the “% Activity” value is “++ (between 25% to 100%)”. On to `Cc1cccc2[nH]cc(C(=O)Nc3ccc(N4CC(F)(F)C[C@H]4C)cc3C(F)(F)F)c(=O)c12` [Compound 667, (R)-N-(4-(4,4-difluoro-2-methylpyrrolidin-1-yl)-2-(trifluoromethyl)phenyl)-5-methyl-4-oxo-1,4-dihydroquinoline-3-carboxamide], for which the EC50 is < 10 µM and the “% Activity” value is recorded as “++ (between 25% to 100%)”. The like results for `O=C(Nc1ccc(N2CCC(CO)CC2)cc1C(F)(F)F)c1c[nH]c2ccccc2c1=O` [Compound 668, N-[4-[4-(hydroxymethyl)-1-piperidyl]-2-(trifluoromethyl)phenyl]-4-oxo-1H-quinoline-3-carboxamide] were, in that order, < 10 µM and “++ (between 25% to 100%)”. `C[C@H]1CCCN1c1ccc(NC(=O)c2c[nH]c3cccc(C(F)(F)F)c3c2=O)c(C(F)(F)F)c1` [Compound 669, (S)-N-(4-(2-methylpyrrolidin-1-yl)-2-(trifluoromethyl)phenyl)-4-oxo-5-(trifluoromethyl)-1,4-dihydroquinoline-3-carboxamide]: the EC50 was < 10 µM and the “% Activity” value is “++ (between 25% to 100%)”. Regarding `O=C(Nc1ccc(N2CCC[C@@H]2CO)cc1C(F)(F)F)c1c[nH]c2ccccc2c1=O` [Compound 670, (R)-N-(4-(2-(hydroxymethyl)pyrrolidin-1-yl)-2-(trifluoromethyl)phenyl)-4-oxo-1,4-dihydroquinoline-3-carboxamide], the EC50 is < 10 µM and the “% Activity” value is on record as “++ (between 25% to 100%)”. In the case of `Nc1nc2ccc(NC(=O)c3c[nH]c4ccccc4c3=O)cc2s1` [Compound 671, N-(2-aminobenzothiazol-6-yl)-4-oxo-1H-quinoline-3-carboxamide], the EC50 was < 10 µM and the “% Activity” value was “++ (between 25% to 100%)”. `CC(C)(C)c1cc(C(C)(C)C)c(NC(=O)c2c[nH]c3cc(F)c(F)cc3c2=O)cc1O` [Compound 672, 6,7-difluoro-N-(5-hydroxy-2,4-ditert-butyl-phenyl)-4-oxo-1H-quinoline-3-carboxamide]: the EC50 was < 10 µM and the “% Activity” value was “++ (between 25% to 100%)”. On to `O=C(Nc1ccc(N2CCN(CCO)CC2)cc1C(F)(F)F)c1c[nH]c2ccccc2c1=O` [Compound 673, N-[4-[4-(2-hydroxyethyl)piperazin-1-yl]-2-(trifluoromethyl)phenyl]-4-oxo-1H-quinoline-3-carboxamide], for which the EC50 is < 10 µM and the “% Activity” value is reported as “++ (between 25% to 100%)”. Regarding `O=C(Nc1ccc(N2CCCC2)cc1)c1c[nH]c2ccccc2c1=O` [Compound 674, 4-oxo-N-(4-pyrrolidin-1-ylphenyl)-1H-quinoline-3-carboxamide], the “% Activity” value is “++ (between 25% to 100%)”.

Take `COc1cc(N2CCCC2)ccc1NC(=O)c1c[nH]c2ccccc2c1=O` [Compound 675, N-(2-methoxy-4-pyrrolidin-1-yl-phenyl)-4-oxo-1H-quinoline-3-carboxamide]: the EC50 was < 10 µM and the “% Activity” value is given as “++ (between 25% to 100%)”. As to `Cc1ccc(C(F)(F)F)cc1NC(=O)c1c[nH]c2cccc(O)c2c1=O` [Compound 676, 5-hydroxy-N-[2-methyl-5-(trifluoromethyl)phenyl]-4-oxo-1H-quinoline-3-carboxamide], the EC50 is < 10 µM and the “% Activity” value is “++ (between 25% to 100%)”. The like results for `CC(C)(C)c1cc(F)c(NC(=O)c2c[nH]c3cc(C#N)ccc3c2=O)cc1O` [Compound 677, 7-cyano-N-(2-fluoro-5-hydroxy-4-tert-butyl-phenyl)-4-oxo-1H-quinoline-3-carboxamide] were, in that order, < 10 µM and “++ (between 25% to 100%)”.

As to `Cc1ccc(C(F)(F)F)cc1NC(=O)c1c[nH]c2ccc(F)cc2c1=O` [Compound 678, 6-fluoro-N-[2-methyl-5-(trifluoromethyl)phenyl]-4-oxo-1H-quinoline-3-carboxamide], the EC50 was < 10 µM and the “% Activity” value was “++ (between 25% to 100%)”. With `CC(C)(C)c1cc2cc[nH]c2cc1NC(=O)c1c[nH]c2ccc(O)cc2c1=O` [Compound 679, 6-hydroxy-4-oxo-N-(5-tert-butyl-1H-indol-6-yl)-1H-quinoline-3-carboxamide], the EC50 is < 10 µM and the “% Activity” value is “++ (between 25% to 100%)”. `CCOc1ccc2[nH]cc(C(=O)Nc3cc4[nH]ccc4cc3C(C)(C)C)c(=O)c2c1` [Compound 681, 6-ethoxy-4-oxo-N-(5-tert-butyl-1H-indol-6-yl)-1H-quinoline-3-carboxamide]: the EC50 was < 10 µM and the “% Activity” value was “++ (between 25% to 100%)”. In the case of `CCc1cccc2c(=O)c(C(=O)Nc3ccc(C(C)C)cc3C(F)(F)F)c[nH]c12` [Compound 682, 8-ethyl-N-[4-isopropyl-2-(trifluoromethyl)phenyl]-4-oxo-1H-quinoline-3-carboxamide], the EC50 was < 10 µM and the “% Activity” value was “+ (<25%)”. `Cc1cc(C(C)(C)C)c(O)cc1NC(=O)c1c[nH]c2ccc(F)cc2c1=O` [Compound 683, 6-fluoro-N-(5-hydroxy-2-methyl-4-tert-butyl-phenyl)-4-oxo-1H-quinoline-3-carboxamide]: the EC50 is < 10 µM and the “% Activity” value is recorded as “++ (between 25% to 100%)”. As to `C[C@@H]1CCCN1c1ccc(NC(=O)c2c[nH]c3ccc(F)cc3c2=O)c(C(F)(F)F)c1` [Compound 684, (R)-6-fluoro-N-(4-(2-methylpyrrolidin-1-yl)-2-(trifluoromethyl)phenyl)-4-oxo-1,4-dihydroquinoline-3-carboxamide], the EC50 is < 10 µM and the “% Activity” value was “++ (between 25% to 100%)”. Turning to `COc1ccc2[nH]cc(C(=O)Nc3ccc(N4[C@H](C)CC[C@H]4C)cc3C(F)(F)F)c(=O)c2c1` [Compound 685, N-(4-((2R,5R)-2,5-dimethylpyrrolidin-1-yl)-2-(trifluoromethyl)phenyl)-6-methoxy-4-oxo-1,4-dihydroquinoline-3-carboxamide], the EC50 is < 10 µM and the “% Activity” value was “++ (between 25% to 100%)”. Turning to `O=C(Nc1ccc(N2CCCCC2)cc1C(F)(F)F)c1c[nH]c2ccccc2c1=O` [Compound 686, 4-oxo-N-[4-(1-piperidyl)-2-(trifluoromethyl)phenyl]-1H-quinoline-3-carboxamide], the EC50 was < 10 µM and the “% Activity” value is on record as “++ (between 25% to 100%)”. As for `CC(C)(C)c1cc(C(C)(C)C)c(NC(=O)c2c[nH]c3c(F)cccc3c2=O)cc1O` [Compound 687, 8-fluoro-N-(5-hydroxy-2,4-ditert-butyl-phenyl)-4-oxo-1H-quinoline-3-carboxamide], the EC50 is < 10 µM and the “% Activity” value is on record as “++ (between 25% to 100%)”. Consider `Cc1ccc2[nH]cc(C(=O)Nc3cc(O)c(C(C)(C)C)cc3C(C)(C)C)c(=O)c2c1` [Compound 688, N-(5-hydroxy-2,4-ditert-butyl-phenyl)-6-methyl-4-oxo-1H-quinoline-3-carboxamide], for which the EC50 was < 10 µM and the “% Activity” value is on record as “++ (between 25% to 100%)”.
